Experimental data as given in patent publication US20200247808A1, “Heterocyclic Tec-Family Kinase Inhibitors” (GB005, Inc., priority 2015, published 2020).
pEC50: −log10 of the molar value. Entries after “also recorded” stand apart in the source; their conditions may differ.

Legend:
[1] = test system: splenocytes; test: Splenic cell proliferation assay (anti-IgM stimulated, Cell Titer-Glo); format: cell-based, mouse (CD1); conditions: Splenocyte; mouse splenocytes, 2.5 μg/ml anti-IgM F(ab')2, 72 h; read-out: Spleen cell EC50
Description: Proliferation of splenocytes in response to anti-IgM can be blocked by inhibition of BTK. Splenocytes were obtained from 6 week old male CD1 mice (Charles River Laboratories Inc.). Mouse spleens were manually disrupted in PBS and filtered using a 70um cell strainer followed by ammonium chloride red blood cell lysis. Cells were washed, resuspended in Splenocyte Medium (HyClone RPMI supplemented with 10% heat-inactivated FBS, 0.5X non-essential amino acids, 10 mM HEPES, 50 μM beta mercaptoethanol) and incubated at 37° C., 5% CO2 for 2h to remove adherent cells. Suspension cells were seeded in 96 well plates at 50,000 cells per well and incubated at 37° C., 5% CO2 for 1h. Splenocytes were pre-treated in triplicate with 10,000 nM curves of Formula 1 compounds for 1h, followed by stimulation of cell proliferation with 2.5 μg/ml anti-IgM
F(ab′)2 (Jackson ImmunoResearch) for 72 h. Cell proliferation was measured by Cell Titer-Glo Luminescent Assay (Promega). EC50 values (50% proliferation in the presence of compound as compared to vehicle treated controls) were calculated from dose response compound curves using GraphPad Prism Software.

[2] = in vitro; conditions: human, liver microsomes
Description: Intrinsic liver microsomal stability was determined using cryopreserved human liver microsomes. […] Following centrifugation 100 μL of the supernatant was transferred to a 96-well plate and analyzed by LC-MS/MS using test-article specific methods. Controls included absence of microsomes or co-factors or use of heat-denatured microsomes. Intrinsic clearance was calculated using the formula: (In(% Time 0/% Time 1)/T1−T0)×Volume of incubation/protein in the incubation.

[3] = test system: collagen-induced arthritis; test: Mouse CIA (collagen-induced arthritis) model; format: in vivo, mouse (B10RIII); conditions: mice, oral gavage 10 and 30 mg/kg, BID, to RA day 12
Description: Mouse CIA model was performed using the methods described by Trentham D E, Townes A S, Kang A H. Autoimmunity to Type II Collagen: An Experimental Model of Arthritis. J Exp Med 1977; 857-868, and Bendele A M. Animal Models of Rheumatoid Arthritis. J Musculoskel Interact 2001; 377-385.
[…]. On experimental day 0 mice were anaesthetized with isoflurane and the dorsal surface was shaved. Collagen, emulsified in Freund's complete adjuvant (CFA) supplemented with additional mycobacterium tuberculosis (TB) H37Ra, was injected intradermally at the base of the tail (0.15 mL / animal; 2 mg/mL collagen and 2.5 mg/mL TB in CFA). This CFA treatment was repeated on day 15.
From day 15 to the end of the study animals were scored daily for signs of arthritis. On the first day of disease (RA Day 1) animals were recruited to the study and grouped using a balanced design based on arthritis score. Once recruited, animals were weighed and dosed twice daily by gavage (PO, BID). Recruited animals were then scored twice a week on RA days 1, 5, 8 and 12.
At the end of the study (RA day 12) animals were weighed and scored.

[4] = Formation of glutathione adducts (GSH reactivity, HPLC-UV); format: in vitro ADME; conditions: 10 mM GSH, 20 micromolar test article, pH 7.4, 37° C.
Description: Generation of non-specific thiol adducts can be measured by assaying reactivity of compounds with GSH. Formation of GSH adducts was measured by incubating GSH (10 mM) in 100 mM Phosphate Buffer pH 7.4 with test article at 20 micromolar final concentration. Briefly, 600 microliters of phosphate buffer pH 7.4 was added in a glass vial with 200 microliters of 100 micromolar test article in DMSO. Samples were warmed at 37° C. for 10 minutes and the reaction was initiated by the addition of 200 microliters of 50 mM reduced GSH in phosphate buffer pH 7.4 and incubated at 37° C. At various time points (0.5 min, 5 min, 15 min, 30 min, 60 min, 120 min and 180 min) 50 microliter aliquots were placed into an injection vial equipped with an insert and mixed with 50 microliters of 1% formic acid in 99% Methanol. Vials were loaded onto the HPLC injection tray and each sample was injected onto a C18 column (ACE 3 C18, 4.6×50 mm column) and both the parent and product were monitored by UV absorbance at 254 nm on an Agilent Technologies 1100 series HPLC. Peaks were integrated and the percentage of product present calculated as the percent of the total peak area on the parent and product at 60 minutes.

[5] = test system: TMD-8 xenograft B-cell lymphoma; test: Antitumor activity study, TMD-8 xenograft; format: in vivo, mouse (Scid); conditions: Scid mice, once daily oral gavage from d21
Description: Female C.B-17/IcrHsd-PrkdcsidLystbg-J mice (Scid mice; Harlan, 6-8 wk on delivery) were used for these studies. The mice were housed 4 per cage in a ventilated rack in a room under controlled conditions of temperature (20-25° C.) and humidity (40-70%), with a 12 h dark/light cycle. The animals were fed ad libitum with irradiated rodent diet (Harlan) and received autoclaved tap water. The cage, bedding and enrichment materials inside the home cage were autoclaved prior to use and all cage and animal manipulations were carried out inside a sterile laminar flow hood. Animals were acclimated for 1 week prior to cell injection.
TMD-8 human activated B cell diffuse large B cell lymphoma cells were grown in HyClone RPMI supplemented with 10% FBS (Fisher)/1% Penicillin/Streptomycin (HyClone) at 37° C., 5% CO2 and then prepared for injection. […]
When the mean tumor volume reached 200-300 mm^3 (d21) mice were randomized into groups of 10 based on tumor size and treatment was initiated. […] General condition and BW of all mice was assessed daily and tumor measurements collected twice per week (Mon and Thur). […]
The long (a) and short (b) axis of tumors were measured with electronic calipers (Mitutoyo) and tumor volume (mm^3) was calculated (a*b^2/2) and temporal changes in tumor volume and body weight were assessed day 21 (d21) to […].

SMILES | pEC50 [1] | microsomal CLint at 1 μM [2] [µL/min/mg] | Effect on arthritis in mouse CIA model [3] | GSH Reactivity GSH Conjugate at 60 minutes [4] | Effect on TMD-8 xenograft tumor growth [5]
CC#CC(=O)N[C@H]1C[C@@H](n2nc(-c3ccc(Oc4ccccc4)cc3)c3c(N)ncnc32)C1 [Compound 1] | 9.70 | 34.9 | prevented the progression of arthritis; also recorded: effective in the mouse collagen-induced arthritis model | 7.3 % of total Peaks | reduce growth of TMD-8 xenograft B-cell lymphoma; also recorded: reduce tumor growth
C=CC(=O)N[C@H]1C[C@@H](n2nc(-c3ccc(Oc4ccccc4)cc3)c3c(N)ncnc32)C1 [Compound 2] | 9.52 | 15.6 | prevented the progression of arthritis; also recorded: effective in the mouse collagen-induced arthritis model | 14.2 % of total Peaks | reduce growth of TMD-8 xenograft B-cell lymphoma; also recorded: reduce tumor growth
